Laboratory results: ChEMBL document CHEMBL1201862, “PubChem BioAssay data set” (2004)
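Each compound was tested at five concentrations against cells in 96-well plates for 48 hours. Here, GI50 denotes the concentration required for 50% inhibition of growth.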 The source made the active and inactive calls. Cut-off read from the data, not from the text of the source: active = GI50 up to about 1.1 µM and inactive = higher.

What was measured:
Experiment in all cases: NCI anticancer screen, dose series, 48 h
786-0 = test system: 786-0
A549 = test system: A549
ACHN = test system: ACHN
CAKI-1 = test system: CAKI-1
CCRF-CEM = test system: CCRF-CEM
COLO 205 = test system: COLO 205
DLD-1 = test system: DLD-1
DMS-114 = test system: DMS-114
DMS-273 = test system: DMS-273
EKVX = test system: EKVX
HCC 2998 = test system: HCC 2998
HCT-116 = test system: HCT-116
HOP-92 = test system: HOP-92
HT-29 = test system: HT-29
IGROV-1 = test system: IGROV-1
K562 = test system: K562
KM-20L2 = test system: KM-20L2
KM12 = test system: KM12
LOX IMVI = test system: LOX IMVI
LXFL 529 = test system: LXFL 529
M14 = test system: M14
M19-MEL = test system: M19-MEL
MOLT-4 = test system: MOLT-4
Malme-3M = test system: Malme-3M
NCI-H23 = test system: NCI-H23
NCI-H460 = test system: NCI-H460
NCI-H522 = test system: NCI-H522
OVCAR-3 = test system: OVCAR-3
OVCAR-4 = test system: OVCAR-4
OVCAR-5 = test system: OVCAR-5
OVCAR-8 = test system: OVCAR-8
RXF 393 = test system: RXF 393
SF-268 = test system: SF-268
SF-295 = test system: SF-295
SF-539 = test system: SF-539
SK-MEL-28 = test system: SK-MEL-28
SK-MEL-2 = test system: SK-MEL-2
SK-MEL-5 = test system: SK-MEL-5
SK-OV-3 = test system: SK-OV-3
SN12C = test system: SN12C
SNB-19 = test system: SNB-19
SNB-75 = test system: SNB-75
SNB-78 = test system: SNB-78
SR = test system: SR
SW-620 = test system: SW-620
TK-10 = test system: TK-10
U-251 = test system: U-251
UACC-62 = test system: UACC-62
UO-31 = test system: UO-31
XF498 = test system: XF498

Measured: GI50

CCOC(=O)C1COc2cc(-c3cc(=O)c4ccccc4o3)ccc2O1 (stereo not given)
inactive: 786-0 > 100 µM | A549 > 100 µM | ACHN > 100 µM | CAKI-1 > 100 µM | CCRF-CEM > 100 µM | COLO 205 > 100 µM | DLD-1 36.1 µM | DMS-114 42.6 µM | DMS-273 > 100 µM | EKVX 95.1 µM | HCC 2998 > 100 µM | HCT-116 > 100 µM | HOP-92 10.4 µM | HT-29 22.8 µM | IGROV-1 66.8 µM | K562 > 100 µM | KM-20L2 > 100 µM | KM12 > 100 µM | LOX IMVI 52.7 µM | LXFL 529 65.2 µM | M14 > 100 µM | M19-MEL 29.7 µM | MOLT-4 > 100 µM | Malme-3M > 100 µM | NCI-H23 > 100 µM | NCI-H460 33.8 µM | NCI-H522 19.2 µM | OVCAR-3 > 100 µM | OVCAR-4 42.9 µM | OVCAR-5 78.9 µM | OVCAR-8 24.7 µM | RXF 393 47.8 µM | SF-268 > 100 µM | SF-295 > 100 µM | SF-539 30.5 µM | SK-MEL-28 > 100 µM | SK-MEL-2 > 100 µM | SK-MEL-5 > 100 µM | SK-OV-3 > 100 µM | SN12C 29.5 µM | SNB-19 > 100 µM | SNB-75 47.9 µM | SNB-78 51.1 µM | SR > 100 µM | SW-620 > 100 µM | TK-10 > 100 µM | U-251 > 100 µM | UACC-62 36.8 µM | UO-31 30.5 µM | XF498 30.6 µM
